# Publication PMC5617480 (Oncotarget, 2017)
# Assays:
# BEL-7404 cells = assay: Senescence induction (SA-β-Gal staining); assay type: cell-based, human; details: BEL-7404, 2.0 μM, 7 d, compared with complexes 4 and 5
# Experimental: Platinum(II)-based drugs were widely used in anticancer chemotherapies, therefore, we performed experiments to test the potency of chiral platinum(II) complexes 4–6 for inducing senescence and apoptosis in BEL-7404 cells. […] We next investigated the effect of complexes 4–6 on the induction of apoptosis. BEL-7404 cells were incubated with complexes 4 (10 and 20 μM), 5 (10 and 20 μM) and 6 (5, 10 and 20 μM) for 24 h, respectively, and then these cells staining with PI and Annexin-V-FITC were determined by flow cytometry (Figure 3A and Supplementary Figure 18). […] Cells were treated with complexes 4–6 at 10 μM for 48 h, the cell cycle arrest was determined by using flow cytometry. […]
# Apoptosis analysis c-myc antibody, or anti-β-actin primary antibody and the Apoptosis was detected by flow cytometric analysis corresponding secondary antibody were used to detect of annexin V staining. […] Then, cells were incubated with annexin V-FITC and PI for 1.0 h at Staining for SA-β-Gal activity was carried out room temperature in the dark and immediately analyzed according to Moore and Chen reports. […] The data are presented as biparametric After the long-term incubation with complexes 4–6, the dot plots showing PI red fluorescence vs annexin V-FITC growth medium was aspirated and the BEL-7404 cells green fluorescence. were fixed in 2% formaldehyde/0.2% glutaraldehyde for 15.0 min at room temperature. […]
# KM mice = assay: Acute toxicity studies, single dose; assay type: in vivo; details: for Death (%) on day 14 / No. of death mice, Five-fourteen day / No. of death mice, Four day / No. of death mice, One day / No. of death mice, Three day / No. of death mice, Two day / Total death: 10 animals
# Experimental: We further evaluated the safety of chiral platinum(II) complex 6 by using KM mice via the tail vein injection with a single dose of complex 6 at 15, 12, 9.6 and 7.8 mg/kg, respectively. After 14 days, the mortality rate of mice was calculated (Supplementary Figure 31 and Supplementary Table 10). […] However, at higher doses (>7.8 mg/kg), death of mice occurred. Thus, the doses of 7.8 mg/kg of complex 6 were employed in the further in vivo experiment.
# [1] = single tail vein dose 7.8 mg/kg
# [2] = single tail vein dose 9.6 mg/kg
substance,measurement,setting,value
cis-[PtCl2(S-(–)-FOA)] [complex 6],level of senescence (β-galactosidase stain),BEL-7404 cells,higher level of senescence
same,Death (%) on day 14,KM mice; [1],0%
same,"No. of death mice, Five-fourteen day",KM mice; [1],0
same,"No. of death mice, Four day",KM mice; [1],0
same,"No. of death mice, One day",KM mice; [1],0
same,"No. of death mice, Three day",KM mice; [1],0
same,"No. of death mice, Two day",KM mice; [1],0
same,Total death,KM mice; [1],0
same,acute toxicity finding,"KM mice; single tail vein dose 7.8 mg/kg, 14 days",did not kill any animal or cause any abnormality
same,Death (%) on day 14,KM mice; [2],10%
same,"No. of death mice, Five-fourteen day",KM mice; [2],0
same,"No. of death mice, Four day",KM mice; [2],0
same,"No. of death mice, One day",KM mice; [2],0
same,"No. of death mice, Three day",KM mice; [2],0
same,"No. of death mice, Two day",KM mice; [2],1
same,Total death,KM mice; [2],1
same,Death (%) on day 14,KM mice; single tail vein dose 12 mg/kg,40%
same,"No. of death mice, Five-fourteen day",KM mice; single tail vein dose 12 mg/kg,0
same,"No. of death mice, Four day",KM mice; single tail vein dose 12 mg/kg,0
same,"No. of death mice, One day",KM mice; single tail vein dose 12 mg/kg,3
same,"No. of death mice, Three day",KM mice; single tail vein dose 12 mg/kg,1
same,"No. of death mice, Two day",KM mice; single tail vein dose 12 mg/kg,1
same,Death (%) on day 14,KM mice; single tail vein dose 15 mg/kg,90%
same,"No. of death mice, Five-fourteen day",KM mice; single tail vein dose 15 mg/kg,0
same,"No. of death mice, Four day",KM mice; single tail vein dose 15 mg/kg,0
same,"No. of death mice, One day",KM mice; single tail vein dose 15 mg/kg,7
same,"No. of death mice, Three day",KM mice; single tail vein dose 15 mg/kg,1
same,"No. of death mice, Two day",KM mice; single tail vein dose 15 mg/kg,1
same,Total death,KM mice; single tail vein dose 15 mg/kg,9
